Results from patent US20050009889A1 (priority 2002, published 2005).
Marks after values point to notes of the source that are not given here.

Legend:
Type in all cases: in vivo
[1] = test system: Plasmopara viticola; experiment: Test G: curative control of grape downy mildew on grape seedlings
Description: (§1) General protocol for preparing test suspensions: Test compounds are first dissolved in acetone in an amount equal to 3% of the final volume and then suspended at the desired concentration (in ppm) in acetone and purified water (50/50 mix) containing 250 ppm of the surfactant Trem® 014 (polyhydric alcohol esters). The resulting test suspensions are then used in the following tests. Spraying a 200 ppm test suspension to the point of run-off on the test plants is the equivalent of a rate of 500 g/ha.
Grape seedlings are inoculated with a spore suspension of Plasmopara viticola (the casual agent of grape downy mildew) and incubated in a saturated atmosphere at 20° C. for 24 h. The next day, test suspension is sprayed to the point of run-off and the treated plants are moved to a growth chamber at 20° C. for 6 days, and then incubated in a saturated atmosphere at 20° C. for 24 h, after which disease ratings are made.

[2] = test system: Phytophthora infestans; settings: tomato seedlings sprayed to run-off, inoculated next day; concentration not given
[3] = test system: Plasmopara viticola; experiment: Test E: preventive control of grape downy mildew on grape seedlings
Description: as §1
The test suspension was sprayed to the point of run-off on grape seedlings. The following day the seedlings were inoculated with a spore suspension of Plasmopara viticola (the causal agent of grape downy mildew) and incubated in a saturated atmosphere at 20° C. for 24 h, moved to a growth chamber at 20° C. for 6 days, and then incubated in a saturated atmosphere at 20° C. for 24 h, after which disease ratings were made.

[4] = test system: Pyricularia oryzae; settings: rice seedlings sprayed to run-off, inoculated next day; concentration not given
[5] = test system: Puccinia recondita; experiment: Test B: preventive control of wheat leaf rust on wheat seedlings; settings: wheat seedlings sprayed to run-off, inoculated next day; concentration not given
Description: as §1
The test suspension was sprayed to the point of run-off on wheat seedlings. The following day the seedlings were inoculated with a spore suspension of Puccinia recondita (the causal agent of wheat leaf rust) and incubated in a saturated atmosphere at 20° C. for 24 h, and then moved to a growth chamber at 20° C. for 6 days, after which disease ratings were made.

[6] = test system: Erysiphe graminis f. sp. tritici; experiment: Test A: preventive control of wheat powdery mildew on wheat seedlings; settings: wheat seedlings sprayed to run-off, inoculated next day, rated after 7 days; concentration not given
Description: as §1
The test suspension was sprayed to the point of run-off on wheat seedlings. The following day the seedlings were inoculated with a spore dust of Erysiphe graminis f. sp. tritici, (the causal agent of wheat powdery mildew) and incubated in a growth chamber at 20° C. for 7 days, after which disease ratings were made.

[7] = test system: grape downy mildew; experiment: Curative utility, in addition to the Tests of Table A; settings: especially for grape downy mildew
[8] = test system: Phytophthora infestans; settings: curative; 100 ppm on potato seedlings
[9] = grape seedlings inoculated, sprayed next day (curative), concentration not given
[10] = grape seedlings sprayed to run-off, inoculated next day, concentration not given
[11] = grape seedlings, curative, 20 ppm

Row | SMILES | Test G disease control rating (100 = 100% disease control, 0 = no control) [1, 9] | Test D disease control rating (100 = 100% disease control, 0 = no control) [2] | Test E disease control rating (100 = 100% disease control, 0 = no control) [3, 10] | Test C disease control rating (100 = 100% disease control, 0 = no control) [4] | Test B disease control rating (100 = 100% disease control, 0 = no control) [5] | Test A disease control rating (100 = 100% disease control, 0 = no control) [6] | curative utility [7] | Test F disease control rating (100 = 100% disease control, 0 = no control) [8] | Test G disease control rating (100 = 100% disease control, 0 = no control) [1, 11] | Test E disease control rating (100 = 100% disease control, 0 = no control) ([3]; grape seedlings, preventive, 100 ppm (footnote *))
1 | COc1nc(C(F)(F)F)ccc1C(=O)NCc1ncc(C(F)(F)F)cc1Cl [Compound 16] | 0% | 7% | 0% | 0% | 0% | 0% |  |  |  | 
2 | Cc1cc(Cl)c(C(=O)NCc2ncc(C(F)(F)F)cc2Cl)c(Cl)n1 [Compound 5, 2,4-Dichloro-N-[[3-chloro-5-(trifluoromethyl)-2-pyridinyl]methyl]-6-methyl-3-pyridinecarboxamide] | 96% | 100% | 100% |  | 8% | 0% | significant curative utility | 100# % |  | 
3 | Cc1ccc(C(=O)NCc2ncc(C(F)(F)F)cc2Cl)c(O)n1 [Compound 13] | 8% | 7% | 8% | 0% | 9% | 0% |  |  |  | 
4 | CC(NC(=O)c1c(Cl)ccnc1Cl)c1ncc(C(F)(F)F)cc1Cl (single isomer, unassigned; (-)) [Compound 23, (−)-2,4-Dichloro-N-[-1-[3-chloro-5-(trifluoromethyl)-2-pyridinyl]ethyl]-3-pyridinecarboxamide] |  |  |  |  |  |  |  | 65# % | 0** % | 69* %
5 | O=C(NCc1ncc(C(F)(F)F)cc1Cl)c1cccnc1O [Compound 8] | 8% | 7% | 8% | 0% | 9% | 0% |  |  |  | 
6 | O=C(NCc1ncc(C(F)(F)F)cc1Cl)c1ccc(C(F)(F)F)nc1 [Compound 18] | 0% | 25% | 0% | 0% | 32% | 0% |  |  |  | 
7 | Cc1nc(C(F)(F)C(F)(F)F)ccc1C(=O)NCc1ncc(C(F)(F)F)cc1Cl [Compound 15] | 8% | 16% | 8% | 88% | 68% | 69% |  |  |  | 
8 | CC(NC(=O)c1c(Cl)ccnc1Cl)c1ncc(C(F)(F)F)cc1Cl (single isomer, unassigned; (+)) [Compound 22, (+)-2,4-Dichloro-N-[1-[3-chloro-5-(trifluoromethyl)-2-pyridinyl]ethyl]-3-pyridinecarboxamide] |  | 100% | 100% | 0% |  |  | significant curative utility | 100# % | 100** % | 
9 | O=C(NCc1ncc(C(F)(F)F)cc1Cl)c1cncc(Br)c1 [Compound 7] | 0% | 16% | 0% | 74% | 9% | 0% |  |  |  | 
